According to the NIST ThermoML archive (doi:10.1016/j.fluid.2008.02.016):
Numbers after ± are expanded uncertainties.

Columns and labels:
[1] = Molar enthalpy of transition or fusion; conditions: Crystal; DSC
[2] = Crystal; DTA

| Molar enthalpy of transition or fusion [1] [kcal/mol] | Normal melting temperature [2] [°C] | SMILES |
| --- | --- | --- |
| 5.07 ± 0.143 | 78.60 ± 0.5 | Cc1ccc(C(C)(C)c2ccc(C)cc2)cc1 [2,2-bis(p-tolyl)propane] |
| 5.33 ± 0.167 | 84.10 ± 0.5 | Cc1ccc(C(c2ccc(C)cc2)(C(F)(F)F)C(F)(F)F)cc1 [2,2-bis(p-tolyl)hexafluoropropane] |
